Tests used:
[1] = target: His-tagged human recombinant kinase full-length Akt2 (Homo sapiens (Human), UniProt P31751); assay: Akt2 kinase assay (Akt2 TR-FRET assay); type: biochemical; conditions: 10 μM ATP, 60 min at 22° C., read-out: Akt2 median IC50
Source text: Akt2 inhibitory activity of compounds of the present invention was quantified employing the Akt2 TR-FRET assay as described in the following paragraphs.
His-tagged human recombinant kinase full-length Akt2 expressed in insect cells and activated by PDK1 was purchased form Invitrogen (part number PV 3975). As substrate for the kinase reaction the biotinylated peptide biotin-Ahx-[sequence] (C-terminus in amide form) was used which can be purchased e.g. from the company Biosynthan GmbH (Berlin-Buch, Germany). For the assay 50 nl of a 100 fold concentrated solution of the test compound in DMSO was pipetted into a black low volume 384 well microtiter plate (Greiner Bio-One, Frickenhausen, Germany), 2 μl of a solution of Akt2 in assay buffer [50 mM TRIS/HCl pH 7.5, 5 mM MgCl2, 1 mM dithiothreitol, 0.02% (v/v) Triton X-100 (Sigma)] were added and the mixture was incubated for 15 min at 22° C. to allow pre-binding of the test compounds to the enzyme before the start of the kinase reaction. Then the kinase reaction was started by the addition of 3 μl of a solution of adenosine-tri-phosphate (ATP, 16.7 μM=>final conc. in the 5 μl assay volume is 10 μM) and substrate (1.67 μM=>final conc. in the 5 μl assay volume is 1 μM) in assay buffer and the resulting mixture was incubated for a reaction time of 60 min at 22° C. The concentration of Akt2 in the assay was adjusted depending of the activity of the enzyme lot and was chosen appropriate to have the assay in the linear range, typical enzyme concentrations were in the range of about 0.2 ng/μl (final conc. in the 5 μl assay volume). The reaction was stopped by the addition of 5 μl of a solution of HTRF detection reagents (200 nM streptavidine-XL665 [Cisbio] and 1.5 nM anti-phosho-Serine antibody [Millipore, cat. #35-001] and 0.75 nM LANCE Eu-W 1024 labeled anti-mouse IgG antibody [Perkin Elmer]) in an aqueous EDTA-solution (100 mM EDTA, 0.1% (w/v) bovine serum albumin in 50 mM HEPES/NaOH pH 7.5). The resulting mixture was incubated 1 h at 22° C. to allow the binding of the biotinylated phosphorylated peptide to the streptavidine-XL665 and the antibodies. Subsequently the amount of phosphorylated substrate was evaluated by measurement of the resonance energy transfer from the anti-mouse-IgG-Eu-Chelate to the streptavidine-XL665. Therefore, the fluorescence emissions at 620 nm and 665 nm after excitation at 350 nm was measured in a TR-FRET reader, e.g. a Rubystar (BMG Labtechnologies, Offenburg, Germany) or a Viewlux (Perkin-Elmer). The ratio of the emissions at 665 nm and at 622 nm was taken as the measure for the amount of phosphorylated substrate.

p-4E-BP1 at T70 = assay: Cellular p-4E-BP1-T70 assay in KPL-4 cells; type: cell-based; conditions: Homo sapiens, KPL4; KPL-4 breast tumour cell line, compound treatment 2 hours; read-out: P4EBP1-T70 median IC50
phospho-AKT at S473 = assay: Cellular p-AKT1/2/3-S473 assay in KPL-4 cells; type: cell-based; conditions: Homo sapiens, KPL4; KPL-4 breast tumour cell line, compound treatment 2 hours; read-out: pAKT-S473 median IC50
Procedure: The molecular mechanism of action was investigated in a set of experiments to assess the inhibition of the PI3K-AKT-mTOR pathway in responsive cell lines such as KPL-4 breast tumour cell line (PIK3CA^H1047R, HER2^O/E and hormone independent). The phospho-substrates of PI3K-AKT-mTOR axis were used as the read-outs to reflect pathway inhibition. Cells were seeded at 60-80% confluency per well in 96-well cell culture plates. After overnight incubation at 37° C. 5% CO2, cells were treated with compounds and vehicle at 37° C. for 2 hours. […] All measurements where at least done in duplicates and confirmed by independent repetition.
Alternatively pAKT-S473 was measured using the “Akt Duplex” of the MULTI-SPOT® Assay System (Fa. Meso Scale Discovery, Cat#N41100B-1) following manufacturers instructions. Each assay used 20 μg of protein extract and measured total AKT and p-AKT content simultaneously in one well. All measurements where at least done in duplicates and confirmed by independent repetition. Values for P-AKT are expressed as percentage of P-AKT level compared to total-AKT content of the extracts.

[2] = target: His-tagged human recombinant kinase full-length Akt1 (Homo sapiens (Human), UniProt P31749); assay: Akt1 kinase assay (Akt1 TR-FRET assay); type: biochemical; conditions: 10 μM ATP, 60 min at 22° C., read-out: Akt1 median IC50
Source text: Biological Assay 1.0: Akt1 Kinase Assay
Akt1 inhibitory activity of compounds of the present invention was quantified employing the Akt1 TR-FRET assay as described in the following paragraphs.
His-tagged human recombinant kinase full-length Akt1 expressed in insect cells was purchased form Invitrogen (part number PV 3599). As substrate for the kinase reaction the biotinylated peptide biotin-Ahx-[sequence] (C-terminus in amide form) was used which can be purchased e.g. from the company Biosynthan GmbH (Berlin-Buch, Germany).
For the assay 50 nl of a 100 fold concentrated solution of the test compound in DMSO was pipetted into a black low volume 384 well microtiter plate (Greiner Bio-One, Frickenhausen, Germany), 2 μl of a solution of Akt1 in assay buffer [50 mM TRIS/HCl pH 7.5, 5 mM MgCl2, 1 mM dithiothreitol, 0.02% (v/v) Triton X-100 (Sigma)] were added and the mixture was incubated for 15 min at 22° C. to allow pre-binding of the test compounds to the enzyme before the start of the kinase reaction. Then the kinase reaction was started by the addition of 3 μl of a solution of adenosine-tri-phosphate (ATP, 16.7 μM=>final conc. in the 5 μl assay volume is 10 μM) and substrate (1.67 μM=>final conc. in the 5 μl assay volume is 1 μM) in assay buffer and the resulting mixture was incubated for a reaction time of 60 min at 22° C. The concentration of Akt1 in the assay was adjusted depending of the activity of the enzyme lot and was chosen appropriate to have the assay in the linear range, typical enzyme concentrations were in the range of about 0.05 ng/μl (final conc. in the 5 μl assay volume). The reaction was stopped by the addition of 5 μl of a solution of HTRF detection reagents (200 nM streptavidine-XL665 [Cisbio] and 1.5 nM anti-phosho-Serine antibody [Millipore, cat. #35-001] and 0.75 nM LANCE Eu-W 1024 labeled anti-mouse IgG antibody [Perkin Elmer]) in an aqueous EDTA-solution (100 mM EDTA, 0.1% (w/v) bovine serum albumin in 50 mM HEPES/NaOH pH 7.5). The resulting mixture was incubated 1 h at 22° C. to allow the binding of the biotinylated phosphorylated peptide to the streptavidine-XL665 and the antibodies. Subsequently the amount of phosphorylated substrate was evaluated by measurement of the resonance energy transfer from the anti-mouse-IgG-Eu-Chelate to the streptavidine-XL665. Therefore, the fluorescence emissions at 620 nm and 665 nm after excitation at 350 nm was measured in a HTRF reader, e.g. a Rubystar (BMG Labtechnologies, Offenburg, Germany) or a Viewlux (Perkin-Elmer). The ratio of the emissions at 665 nm and at 622 nm was taken as the measure for the amount of phosphorylated substrate.

[3] = system: MCF-7 breast tumour cell line; assay: Tumor cell proliferation assay (CellTiter-Glo), MCF-7; type: cell-based; conditions: Homo sapiens, MCF7, 72 h drug exposure, read-out: MCF-7 median IC50
Procedure: (§1) Biological Assay 4.0: Tumor Cell Proliferation Assays
(§2) Compounds were tested in a cell-based assay that measures the capacity of the compounds to inhibit tumour cell proliferation following a 72 h drug exposure. Cell viability is determined using CellTiter-Glow® (CTG, Promega, cat#G7571/2/3). The CellTiter-Glo® Luminescent Cell Viability Assay is a homogeneous method to determine the number of viable cells in culture.
(§3) Detection is based on using the luciferase reaction to measure the amount of ATP from viable cells. The amount of ATP in cells correlates with cell viability. Within minutes after a loss of membrane integrity, cells lose the ability to synthesize ATP, and endogenous ATPases destroy any remaining ATP; thus the levels of ATP fall precipitously.
(§4) For each cell line assayed, cells were plated onto a separate plate for determination of fluorescence at t=0 hour and t=72 hour time points. Following overnight incubation at 37° C., chemiluminescence values for the t=0 samples were determined after adding 10 μl medium and 100 μl CTG solution according to manufacture protocol. Plates for the t=72 hour time points were treated with compounds diluted into growth medium at ten times final concentration added in 10 μL to the cell culture plate. Cells were then incubated for 72 hours at 37° C. Chemiluminescence values for the t=72 hour samples were determined. […] Experiments were controlled using a reference compound as standard.

[4] = system: KPL-4 breast cancer cell line; assay: Tumor cell proliferation assay (CellTiter-Glo), KPL-4; type: cell-based; conditions: Homo sapiens, KPL4, 72 h drug exposure, read-out: KLP-4 median IC50
Procedure: as §1, §2, §3, §4

Sequence of His-tagged human recombinant kinase full-length Akt1 (P31749 whole entry): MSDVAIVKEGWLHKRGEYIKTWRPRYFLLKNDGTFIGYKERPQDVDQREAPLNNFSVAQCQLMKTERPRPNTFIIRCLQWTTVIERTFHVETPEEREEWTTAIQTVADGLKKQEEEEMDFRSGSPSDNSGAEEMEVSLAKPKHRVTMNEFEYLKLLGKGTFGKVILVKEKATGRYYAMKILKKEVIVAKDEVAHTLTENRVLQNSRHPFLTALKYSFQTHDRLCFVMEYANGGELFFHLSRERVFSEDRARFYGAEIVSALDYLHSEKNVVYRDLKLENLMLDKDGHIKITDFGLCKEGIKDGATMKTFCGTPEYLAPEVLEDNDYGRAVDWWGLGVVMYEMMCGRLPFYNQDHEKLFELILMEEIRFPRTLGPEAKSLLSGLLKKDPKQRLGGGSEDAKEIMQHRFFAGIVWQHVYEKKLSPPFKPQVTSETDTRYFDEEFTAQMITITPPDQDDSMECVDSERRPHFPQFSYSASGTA
Sequence of His-tagged human recombinant kinase full-length Akt2 (P31751 whole entry): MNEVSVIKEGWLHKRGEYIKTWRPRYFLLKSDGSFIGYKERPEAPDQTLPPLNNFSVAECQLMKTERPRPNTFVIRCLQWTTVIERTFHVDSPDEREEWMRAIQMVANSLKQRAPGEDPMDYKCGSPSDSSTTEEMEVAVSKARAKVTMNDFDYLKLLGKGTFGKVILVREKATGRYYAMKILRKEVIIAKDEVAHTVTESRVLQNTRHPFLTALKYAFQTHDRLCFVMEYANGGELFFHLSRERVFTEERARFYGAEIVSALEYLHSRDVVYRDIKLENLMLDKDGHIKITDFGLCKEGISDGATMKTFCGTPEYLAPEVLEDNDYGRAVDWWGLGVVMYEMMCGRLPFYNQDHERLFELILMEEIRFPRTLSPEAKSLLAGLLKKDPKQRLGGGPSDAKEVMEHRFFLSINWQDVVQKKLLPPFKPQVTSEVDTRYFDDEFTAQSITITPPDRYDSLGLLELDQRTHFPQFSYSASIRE

SMILES	IC50 [1] [nM]	IC50 (p-4E-BP1 at T70) [nM]	IC50 (phospho-AKT at S473) [nM]	IC50 [2] [nM]	IC50 [3] [nM]	IC50 [4] [nM]
COC(=O)CCc1ccnn2c(-c3ccccc3)c(-c3ccc(C4(N)CCC4)cc3)nc12 [Example 72, Methyl 3-{2-[4-(1-aminocyclobutyl)phenyl]-3-phenylimidazo[1,2-b]pyridazin-8-yl}propanoate]	580	590	1000	310	3000	2200
COc1cc(-c2cc[nH]n2)c2nc(-c3ccc(C4(N)CCC4)cc3)c(-c3ccccc3)n2n1 [Example 73, 1-{4-[6-Methoxy-3-phenyl-8-(1H-pyrazol-3-yl)imidazo[1,2-b]pyridazin-2-yl]-phenyl}cyclobutanamine]	43	1700	230	4.3	2000	1800
COc1cc(-c2ccncc2)c2nc(-c3ccc(C4(N)CCC4)cc3)c(-c3ccccc3)n2n1 [Example 75, 1-{4-[6-Methoxy-3-phenyl-8-(pyridin-4-yl)imidazo[1,2-b]pyridazin-2-yl]phenyl}cyclobutanamine]	100	1500	230	21	1800	1800
CCOc1cc(OCC)c2nc(-c3ccc(C4(N)CCC4)cc3)c(-c3ccccc3)n2n1 [Example 76, 1-[4-(6,8-Diethoxy-3-phenylimidazo[1,2-b]pyridazin-2-yl)phenyl]cyclobutanamine]	23	940	120	11	940	1700
CCCCOc1cc(OCC)nn2c(-c3ccccc3)c(-c3ccc(C4(N)CCC4)cc3)nc12 [Example 77, 1-[4-(8-Butoxy-6-ethoxy-3-phenylimidazo[1,2-b]pyridazin-2-yl)phenyl]-cyclobutanamine]	61	1400	460	10	1700	1900
NC1(c2ccc(-c3nc4ccc(O)nn4c3-c3ccccc3)cc2)CCC1 [Example 79, 2-[4-(1-Aminocyclobutyl)phenyl]-3-phenylimidazo[1,2-b]pyridazin-6-ol]	2800	910	210	2000	10000	10000
COC(=O)COc1ccc2nc(-c3ccc(C4(N)CCC4)cc3)c(-c3ccccc3)n2n1 [Example 80, Methyl ({2-[4-(1-aminocyclobutyl)phenyl]-3-phenylimidazo[1,2-b]pyridazin-6-yl}oxy)acetate]	610	9800	190	96	10000	10000

Source: patent publication US9604989B2, “Imidazopyridazines as Akt kinase inhibitors” (Bayer Intellectual Property GmbH, priority 2011, dated 2017)
